The source of these data is publication PMC9376960, “Ruthenium(II)–Tris-pyrazolylmethane Complexes Inhibit Cancer Cell Growth by Disrupting Mitochondrial Calcium Homeostasis” (Journal of Medicinal Chemistry, 2022).

Series [1] deals with HCT116. More on the design: method as in PMID 30740808. Particulars: MTT, 72 h; cited from earlier work.
Series [2] concerns MMC-2. The experiment in a line: MTT assay, NER-deficient cells. Type of series: cell-based, Chinese hamster. Particulars: 72 h. From the text:
(§1) The human cervical carcinoma HeLa cells and human colorectal carcinoma cells HCT116 were kindly supplied by Professor B. Keppler, University of Vienna (Austria). Human rhabdomyosarcoma RD cells were purchased from the American Type Culture Collection (ATCC, Manassas, VA). Human breast cancer MCF-7 cells, human skin melanoma 518A2 cells, and human MRC5pd30 cells derived from normal lung tissue were purchased from the European Collection of Authenticated Cell Cultures (ECACC) (Salisbury, U.K.). Chinese hamster ovary CHO-K1 cell line (wild type) and its derivative MMC-2 carrying the ERCC3/XPB mutation (NER-deficient) cell line were kindly supplied by Dr. […], Cancer Research Institute, Slovak Academy of Sciences, Bratislava (Slovakia). In vitro antiproliferative activity of Ru complexes was determined by the MTT or, alternatively, SRB assay as already described,[84] after 72 h of incubation of cells with various concentrations of the Ru complex. The reported IC50 values are an average of three independent experiments, each consisting of three replicates per concentration.
In general terms: Tetrazolium assays rely on reduction of a dye to a coloured formazan, in cell work by metabolically active cells.

Series [3] has as its system RD. The series is described as follows: MTT antiproliferative assay. The format is cell-based, human. The conditions noted are these: 72 h, mean ± SD. How it is done:
All of the cell lines were cultivated in DMEM medium (high glucose 4.5 g L^–1, PAA, Pasching, Austria) supplemented with gentamycin (50 μg mL^–1, Serva, Heidelberg, Germany) and 10% heat-inactivated fetal bovine serum (PAA). The medium for MRC5pd30 cells was further supplemented by 1% nonessential amino acids (Sigma-Aldrich, Prague, Czech Republic). All cells were cultured as adherent monolayers in a humidified incubator at 37 °C in a 5% CO2 atmosphere and subcultured twice a week with an appropriate plating density. In vitro antiproliferative activity of Ru complexes was determined by the MTT or, alternatively, SRB assay as already described,[84] after 72 h of incubation of cells with various concentrations of the Ru complex. The reported IC50 values are an average of three independent experiments, each consisting of three replicates per concentration.

For series [4], the system named is CHO-K1. The series is described as follows: MTT assay, wild-type cells. Type of series: cell-based, Chinese hamster. Particulars: 72 h.
Description: as §1

Series [5] concerns MCF-7. More on the design: method as in PMID 30740808. Particulars: MTT, 72 h; cited from earlier work.
The test system of series [6] is DNA. On the set-up: method as in PMID 25888926, PMID 28623355. The conditions noted are these: cited from earlier work.
Series [7] deals with 518A2. On the set-up: method as in PMID 32555811. Particulars: MTT, 72 h; cited from earlier work.
Series [8] deals with HeLa. More on the design: method as in PMID 30740808. Particulars: MTT, 72 h; cited from earlier work.
Series [9] concerns HCT116 (3D). The series is described as follows: Cytotoxicity in 3D spheroids (colonospheres), Cell Titer-Glo 3D. Type of series: cell-based, human. How it is done:
A spontaneous spheroid formation was used to generate colonospheres derived from the HCT116 cell line. The HCT116 cells were seeded on 96-well ultralow attachment plates (1400 cells/well) and cultivated in a tumor sphere-forming medium (DMEM/F12, supplemented with B27 (Invitrogen), BSA, bFGF (10 ng mL^–1), and EGF (20 ng mL^–1)) for 4 days. After the incubation period, colonospheres were treated with Ru complexes for another 3 days. The viability of colonospheres was determined by the Cell Titer-Glo 3D cell viability assay (Promega) according to the manufacturer’s instructions. The reported IC50 values are the average of three independent experiments, each consisting of three replicates per concentration level. Bright-field images of the spheroids were taken as well to determine the effect on the morphology of the spheroids.
In general terms: Cellular ATP, detected with luciferase, serves as a proxy for viable cell number.

The test system of series [10] is MRC5pd30. More on the design: method as in PMID 30740808. The conditions noted are these: MTT, 72 h; cited from earlier work.

As usually defined, the IC50 is the point on the concentration scale where inhibition reaches its midpoint. As for `N.N.[Cl][Pt][Cl]` [cisplatin], the IC50 was 8 ± 1 µM in series [1]; 5.5 ± 0.8 µM in series [2]; 4.6 ± 0.3 µM in series [3]; 54 ± 6 µM in series [4]; 13 ± 3 µM in series [5]; 2.6 ± 0.7 µM in series [7]. The concentration for half-maximal inhibition (IC50) in [8] is 14 ± 3 µM; in [9] (Cell Titer-Glo, spheroids, 72 h of treatment) it was 44.6 ± 1.8 µM; in series [10], 11.7 ± 0.8 µM. The “intracellular platinum that reaches the nucleus and binds to DNA” value in series [6] was 2–3%. Also, in [9] (20 µM, 72 h, bright-field images), the “effect on the morphology of 3D spheroids” value is listed as “heterogeneous morphology with several dissociated cell clumps”.
